For 33 molecules, IC50 results are on record in patent publication US20170240556A1, “BIFLUORODIOXALANE-AMINO-BENZIMIDAZOLE KINASE INHIBITORS FOR THE TREATMENT OF CANCER, AUTOIMMUNEINFLAMMATION AND CNS DISORDERS” (4SC DISCOVERY GMBH, priority 2012, published 2017).

Some results are limits rather than exact numbers.

Chain of Casein kinase 1 delta (CSKN1D) (P48730 whole entry): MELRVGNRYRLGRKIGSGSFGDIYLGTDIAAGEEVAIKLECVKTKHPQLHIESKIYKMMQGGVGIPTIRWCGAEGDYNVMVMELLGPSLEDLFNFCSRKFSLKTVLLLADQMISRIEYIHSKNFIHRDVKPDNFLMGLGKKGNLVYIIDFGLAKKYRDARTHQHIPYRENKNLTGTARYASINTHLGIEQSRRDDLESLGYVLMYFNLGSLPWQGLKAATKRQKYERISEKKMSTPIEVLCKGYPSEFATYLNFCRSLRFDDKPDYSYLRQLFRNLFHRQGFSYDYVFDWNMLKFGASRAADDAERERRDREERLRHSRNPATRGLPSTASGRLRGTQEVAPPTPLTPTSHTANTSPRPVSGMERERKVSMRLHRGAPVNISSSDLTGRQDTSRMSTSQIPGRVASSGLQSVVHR
Chain of Casein kinase 1 epsilon (CSKN1E) (P49674 whole entry): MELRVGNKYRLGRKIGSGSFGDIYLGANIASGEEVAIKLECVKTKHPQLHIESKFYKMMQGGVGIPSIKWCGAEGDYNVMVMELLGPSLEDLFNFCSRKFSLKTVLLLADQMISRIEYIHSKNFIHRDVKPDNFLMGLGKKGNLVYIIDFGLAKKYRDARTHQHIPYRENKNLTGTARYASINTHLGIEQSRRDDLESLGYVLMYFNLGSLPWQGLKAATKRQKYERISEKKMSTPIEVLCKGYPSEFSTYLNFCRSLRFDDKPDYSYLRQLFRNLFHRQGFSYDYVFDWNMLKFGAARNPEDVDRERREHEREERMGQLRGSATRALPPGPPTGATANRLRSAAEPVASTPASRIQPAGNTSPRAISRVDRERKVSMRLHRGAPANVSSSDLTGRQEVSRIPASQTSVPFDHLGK

One assay has as its target Casein kinase 1 epsilon (CSKN1E) (Homo sapiens, UniProt P49674). In words: Casein kinase assay, CK1 epsilon. Particulars: recombinant CSKN1E 30 nM, ATP 10 μM. The assay is classed as biochemical. The procedure:
(§1) The recombinant protein Casein kinase 1 delta (CSKN1D) was added to the substrate solution in a concentration of 5 nM and gently mixed. Dilution series in of compounds of the present invention in DMSO were added to the reaction mixture, followed after 20 min by addition of a mixture of ATP and ^33P-ATP (specific activity 0.01 μCi/μl final) to a final concentration of 10 μM. Reactions were carried out at 25° C. for 120 min, followed by spotting the reactions onto P81 ion exchange filter paper. Unbound phosphate was removed by washing of the filters in 0.75% phosphoric acid. […] IC50 values and curve fits were obtained using the program Prism® (Graph Pad Software).
The above assay was also used to determine the inhibitory capacity of the compounds of the present invention on Casein Kinase 1 epsilon, wherein instead of CSKN1D, recombinant protein Casein kinase 1 epsilon (CSKN1E) was added to the substrate solution in a concentration of 30 nM and gently mixed.
As a reminder, the IC50 is the point on the concentration scale where inhibition reaches its midpoint. With `NC(=O)c1ccc(C(=O)Nc2nc3cc4c(cc3[nH]2)OC(F)(F)O4)cc1` [Compound 111, N^1-(2,2-difluoro-5H-[1,3]dioxolo[4′,5′:4,5]benzo[1,2-d]imidazol-6-yl)terephthalamide], the IC50 is under 200 nM.

`Nc1c[nH]c(C(=O)Nc2nc3cc4c(cc3[nH]2)OC(F)(F)O4)c1` [Compound 15B, 4-Amino-N-(2,2-difluoro-5H-[1,3]dioxolo[4′,5′:4,5]benzo[1,2-d]imidazol-6-yl)-1H-pyrrole-2-carboxamide]: the concentration for half-maximal inhibition (IC50) was in the range of 200 to 1000 nM.

On to `O=C(Nc1nc2cc3c(cc2[nH]1)OC(F)(F)O3)c1ncn[nH]1` [Compound 84, N-(2,2-difluoro-5H-[1,3]dioxolo[4′,5′:4,5]benzo[1,2-d]imidazol-6-yl)-1H-1,2,4-triazole-3-carboxamide], for which the half-maximal inhibitory concentration (IC50) is over 1000 nM.

In the case of `Cc1nn(C)cc1-c1cc(C(=O)Nc2nc3cc4c(cc3[nH]2)OC(F)(F)O4)no1` [Compound 144, N-(2,2-difluoro-5H-[1,3]dioxolo[4′,5′:4,5]benzo[1,2-d]imidazol-6-yl)-5-(1,3-dimethyl-1H-pyrazol-4-yl)isoxazole-3-carboxamide], the IC50 was over 1000 nM.

The next assay addresses Casein kinase 1 delta (CSKN1D) (Homo sapiens, UniProt P48730). In words: Casein kinase assay, CK1 delta. Particulars: recombinant CSKN1D 5 nM, ATP 10 μM. In kind it is biochemical. The procedure: as §1
`NC(=O)c1ccc(C(=O)Nc2nc3cc4c(cc3[nH]2)OC(F)(F)O4)cc1` [Compound 111, N^1-(2,2-difluoro-5H-[1,3]dioxolo[4′,5′:4,5]benzo[1,2-d]imidazol-6-yl)terephthalamide]: the IC50 is under 200 nM.

On to `Nc1c[nH]c(C(=O)Nc2nc3cc4c(cc3[nH]2)OC(F)(F)O4)c1` [Compound 15B, 4-Amino-N-(2,2-difluoro-5H-[1,3]dioxolo[4′,5′:4,5]benzo[1,2-d]imidazol-6-yl)-1H-pyrrole-2-carboxamide], for which the IC50 is under 200 nM.

Turning to `O=C(Nc1nc2cc3c(cc2[nH]1)OC(F)(F)O3)c1ncn[nH]1` [Compound 84, N-(2,2-difluoro-5H-[1,3]dioxolo[4′,5′:4,5]benzo[1,2-d]imidazol-6-yl)-1H-1,2,4-triazole-3-carboxamide], the half-inhibitory concentration (IC50) was over 1000 nM.

`Cc1nn(C)cc1-c1cc(C(=O)Nc2nc3cc4c(cc3[nH]2)OC(F)(F)O4)no1` [Compound 144, N-(2,2-difluoro-5H-[1,3]dioxolo[4′,5′:4,5]benzo[1,2-d]imidazol-6-yl)-5-(1,3-dimethyl-1H-pyrazol-4-yl)isoxazole-3-carboxamide]: the IC50 is under 200 nM.

As to `COc1cccc(C(=O)Nc2nc3cc4c(cc3[nH]2)OC(F)(F)O4)n1` [Compound 24B], the 50% inhibitory concentration (IC50) lay in the range of 200 to 1000 nM.

In the case of `COc1cc(C(=O)Nc2nc3cc4c(cc3[nH]2)OC(F)(F)O4)ccn1` [Compound 124, N-(2,2-difluoro-5H-[1,3]dioxolo[4′,5′:4,5]benzo[1,2-d]imidazol-6-yl)-2-methoxyisonicotinamide], the half-maximal inhibitory concentration (IC50) was under 200 nM.

For the molecule `O=C(Nc1nc2cc3c(cc2[nH]1)OC(F)(F)O3)c1cccc([N+](=O)[O-])c1` [Compound 65, N-(2,2-difluoro-5H-[1,3]dioxolo[4′,5′:4,5]benzo[1,2-d]imidazol-6-yl)-3-nitrobenzamide], the IC50 was under 200 nM.

Turning to `O=C(Nc1nc2cc3c(cc2[nH]1)OC(F)(F)O3)c1sccc1Cl` [Compound 64, 3-chloro-N-(2,2-difluoro-5H-[1,3]dioxolo[4′,5′:4,5]benzo[1,2-d]imidazol-6-yl)thiophene-2-carboxamide], the concentration for half-maximal inhibition (IC50) was over 1000 nM.

With `NS(=O)(=O)c1cccc(C(=O)Nc2nc3cc4c(cc3[nH]2)OC(F)(F)O4)c1` [Compound 100, N-(2,2-difluoro-5H-[1,3]dioxolo[4′,5′:4,5]benzo[1,2-d]imidazol-6-yl)-3-sulfamoylbenzamide], the 50% inhibitory concentration (IC50) is under 200 nM.

As to `O=C(Nc1nc2cc3c(cc2[nH]1)OC(F)(F)O3)c1csc(-c2cccc(F)c2)n1` [Compound 12B, N-(2,2-difluoro-5H-[1,3]dioxolo[4′,5′:4,5]benzo[1,2-d]imidazol-6-yl)-2-(3-fluorophenyl)thiazole-4-carboxamide], the half-inhibitory concentration (IC50) is under 200 nM.

With `O=C(Nc1nc2cc3c(cc2[nH]1)OC(F)(F)O3)c1cncc(-c2ccco2)c1` [Compound 4B, N-(2,2-difluoro-5H-[1,3]dioxolo[4′,5′:4,5]benzo[1,2-d]imidazol-6-yl)-5-(furan-2-yl)nicotinamide], the concentration for half-maximal inhibition (IC50) was under 200 nM.

Consider `O=C(Nc1nc2cc3c(cc2[nH]1)OC(F)(F)O3)c1cc[nH]n1` [Compound 73, N-(2,2-difluoro-5H-[1,3]dioxolo[4′,5′:4,5]benzo[1,2-d]imidazol-6-yl)-1H-pyrazole-3-carboxamide], for which the 50% inhibitory concentration (IC50) is over 1000 nM.

`NS(=O)(=O)c1ccc(C(=O)Nc2nc3cc4c(cc3[nH]2)OC(F)(F)O4)cn1` [Compound 112, N-(2,2-difluoro-5H-[1,3]dioxolo[4′,5′:4,5]benzo[1,2-d]imidazol-6-yl)-6-sulfamoylnicotinamide]: the 50% inhibitory concentration (IC50) was under 200 nM.

For `Nc1ccc(C(=O)Nc2nc3cc4c(cc3[nH]2)OC(F)(F)O4)cn1` [Compound 110, 6-amino-N-(2,2-difluoro-5H-[1,3]dioxolo[4′,5′:4,5]benzo[1,2-d]imidazol-6-yl)nicotinamide], the IC50 fell in the range of 200 to 1000 nM.

Regarding `NS(=O)(=O)c1ccc(C(=O)Nc2nc3cc4c(cc3[nH]2)OC(F)(F)O4)cc1` [Compound 62, N-(2,2-difluoro-5H-[1,3]dioxolo[4′,5′:4,5]benzo[1,2-d]imidazol-6-yl)-4-sulfamoylbenzamide], the IC50 was under 200 nM.

`O=C(Nc1nc2cc3c(cc2[nH]1)OC(F)(F)O3)c1cccc(OC(F)F)c1` [Compound 121, N-(2,2-difluoro-5H-[1,3]dioxolo[4′,5′:4,5]benzo[1,2-d]imidazol-6-yl)-3-(difluoromethoxy)benzamide]: the half-maximal inhibitory concentration (IC50) is under 200 nM.

In the case of `CC(C)(C)c1ccc(C(=O)Nc2nc3cc4c(cc3[nH]2)OC(F)(F)O4)cc1` [Compound 115, 4-(tert-butyl)-N-(2,2-difluoro-5H-[1,3]dioxolo[4′,5′:4,5]benzo[1,2-d]imidazol-6-yl)benzamide], the half-inhibitory concentration (IC50) fell in the range of 200 to 1000 nM.

Turning to `O=C(Nc1nc2cc3c(cc2[nH]1)OC(F)(F)O3)C1CCCCC1` [Compound 80, N-(2,2-difluoro-5H-[1,3]dioxolo[4′,5′:4,5]benzo[1,2-d]imidazol-6-yl)cyclohexanecarboxamide], the IC50 is under 200 nM.

Consider `O=C(Nc1nc2cc3c(cc2[nH]1)OC(F)(F)O3)c1ccc(Cl)cc1` [Compound 106, 4-chloro-N-(2,2-difluoro-5H-[1,3]dioxolo[4′,5′:4,5]benzo[1,2-d]imidazol-6-yl)benzamide], for which the half-inhibitory concentration (IC50) is over 1000 nM.

Take `COC(=O)c1cccc(C(=O)Nc2nc3cc4c(cc3[nH]2)OC(F)(F)O4)c1` [Compound 105, methyl 3-((2,2-difluoro-5H-[1,3]dioxolo[4′,5′:4,5]benzo[1,2-d]imidazol-6-yl)carbamoyl)benzoate]: the IC50 was under 200 nM.

With `O=C(Nc1nc2cc3c(cc2[nH]1)OC(F)(F)O3)c1cccc(F)c1` [Compound 70, N-(2,2-difluoro-5H-[1,3]dioxolo[4′,5′:4,5]benzo[1,2-d]imidazol-6-yl)-3-fluorobenzamide], the IC50 is under 200 nM.

Regarding `Cc1onc(-c2ccccc2)c1C(=O)Nc1nc2cc3c(cc2[nH]1)OC(F)(F)O3` [Compound 50, N-(2,2-difluoro-5H-[1,3]dioxolo[4′,5′:4,5]benzo[1,2-d]imidazol-6-yl)-5-methyl-3-phenylisoxazole-4-carboxamide], the 50% inhibitory concentration (IC50) was over 1000 nM.

On to `O=C(Nc1nc2cc3c(cc2[nH]1)OC(F)(F)O3)c1ccccn1` [Compound 67, N-(2,2-difluoro-5H-[1,3]dioxolo[4′,5′:4,5]benzo[1,2-d]imidazol-6-yl)picolinamide], for which the 50% inhibitory concentration (IC50) is over 1000 nM.

For `CCNc1ccc(C(=O)Nc2nc3cc4c(cc3[nH]2)OC(F)(F)O4)cc1` [Compound 77, N-(2,2-difluoro-5H-[1,3]dioxolo[4′,5′:4,5]benzo[1,2-d]imidazol-6-yl)-4-(ethylamino)benzamide], the IC50 was under 200 nM.

On to `O=C(Nc1nc2cc3c(cc2[nH]1)OC(F)(F)O3)c1cccc(O)c1` [Compound 113, N-(2,2-difluoro-5H-[1,3]dioxolo[4′,5′:4,5]benzo[1,2-d]imidazol-6-yl)-3-hydroxybenzamide], for which the IC50 is under 200 nM.

On to `O=C(Nc1nc2cc3c(cc2[nH]1)OC(F)(F)O3)c1csc(-c2ccsc2)n1` [Compound 81, N-(2,2-difluoro-5H-[1,3]dioxolo[4′,5′:4,5]benzo[1,2-d]imidazol-6-yl)-2-(thiophen-3-yl)thiazole-4-carboxamide], for which the IC50 is under 200 nM.

Consider `CS(=O)(=O)Nc1cccc(C(=O)Nc2nc3cc4c(cc3[nH]2)OC(F)(F)O4)c1` [Compound 108, N-(2,2-difluoro-5H-[1,3]dioxolo[4′,5′:4,5]benzo[1,2-d]imidazol-6-yl)-3-(methylsulfonamido)benzamide], for which the IC50 is under 200 nM.

As to `O=C(Nc1nc2cc3c(cc2[nH]1)OC(F)(F)O3)c1cccc(N2CCCCC2)c1` [Compound 128, N-(2,2-difluoro-5H-[1,3]dioxolo[4′,5′:4,5]benzo[1,2-d]imidazol-6-yl)-3-(piperidin-1-yl)benzamide], the concentration for half-maximal inhibition (IC50) was under 200 nM.

Take `NS(=O)(=O)c1c[nH]c(C(=O)Nc2nc3cc4c(cc3[nH]2)OC(F)(F)O4)c1` [Compound 101, N-(2,2-difluoro-5H-[1,3]dioxolo[4′,5′:4,5]benzo[1,2-d]imidazol-6-yl)-4-sulfamoyl-1H-pyrrole-2-carboxamide]: the IC50 was under 200 nM.

With `NC(=O)c1ccc(C(=O)Nc2nc3cc4c(cc3[nH]2)OC(F)(F)O4)c(F)c1` [Compound 94, N^1-(2,2-difluoro-5H-[1,3]dioxolo[4′,5′:4,5]benzo[1,2-d]imidazol-6-yl)-2-fluoroterephthalamide], the half-inhibitory concentration (IC50) was under 200 nM.

Take `O=C(Nc1nc2cc3c(cc2[nH]1)OC(F)(F)O3)c1ccc(-c2ccccc2)cc1` [Compound 21B]: the IC50 was 200 to 1000 nM.

As for `O=C(Nc1nc2cc3c(cc2[nH]1)OC(F)(F)O3)c1cncc(N2CCOCC2)c1` [Compound 25B, N-(2,2-difluoro-5H-[1,3]dioxolo[4′,5′:4,5]benzo[1,2-d]imidazol-6-yl)-5-morpholinonicotinamide], the IC50 was under 200 nM.

As for `O=C(Nc1nc2cc3c(cc2[nH]1)OC(F)(F)O3)c1cccc(OC(F)(F)F)c1` [Compound 120, N-(2,2-difluoro-5H-[1,3]dioxolo[4′,5′:4,5]benzo[1,2-d]imidazol-6-yl)-3-(trifluoromethoxy)benzamide], the IC50 was in the range of 200 to 1000 nM.
